# Experimental data: PMC8881501, “Identification of SARS-CoV-2 inhibitors targeting Mpro and PLpro using in-cell-protease assay” (Communications Biology, 2022)
# Values joined by “and” are separate entries in the source; they are usually repeats but may differ in a detail not shown here. Equal entries are not always repeated. Structures can show the parent of a compound that is named as a salt. Where two headings read alike, the source gives them in different places.
# How the values were obtained:
# [1] = target: T1, SARS-CoV-2 Mpro (Severe acute respiratory syndrome coronavirus 2, UniProt P0DTC1); assay: In-cell protease (ICP) assay, Mpro construct in HEK293T cells; format: cell-based; settings: HEK-293T; for remaining activity at 1 µM: read-out: mEmerald-NLS nuclear/total fluorescence (protease activity) normalized to untreated cells, 1 μM, HEK293T, Fig 2A replicate data, untreated control = 100; for remaining activity at 10 µM: read-out: mEmerald-NLS nuclear/total fluorescence (protease activity) normalized to untreated cells, 10 μM, HEK293T, Fig 2A replicate data, untreated control = 100
# [2] = tested on: HEK293T cells; assay: Cell viability (alamarBlue) on HEK293T cells; settings: replicate data
# [3] = tested on: SARS-CoV-2; format: cell-based; settings: Huh-7.5, MOI 0.1, 24 h.p.i., anti-N IFA
# [4] = tested on: SARS-CoV; settings: Vero E6 cells; cited from earlier work
# [5] = tested on: SARS-CoV-2; settings: Vero E6 cells; cited from earlier work
# [6] = tested on: SARS-CoV-2; assay: microbe, parasite or virus in culture; format: cell-based
# [7] = tested on: SARS-CoV-2; assay: Time of addition (pre-treatment) experiment in Huh-7.5 cells, plaque assay; format: cell-based; settings: Huh-7.5, pretreatment
# [8] = target: T1, SARS-CoV-2 Mpro; assay: biochemical; settings: for inhibition of Mpro protease activity: FRET assay
# Description: A cleavage site is indicated by an asterisk. […] N = 3, values are represented as mean ± SE.
# For the determination of half-maximal inhibitory concentrations (IC50) of MG-101 and GC376 (BPS Bioscience), a synthetic substrate of Mpro containing FRET pair and Mpro nsp4/5 cleavage site (indicated by an arrow, Dabcyl-KTSAVLQ ↓ SGFRKME-Edans) (BPS Bioscience) was used for the FRET-based cleavage assay. The assay was performed in 96-well, black, flat-bottomed microtiter plates (Greiner Bio-One, Germany) with a final volume of 50 μl. Mpro (a final concentration of 200 nM) was pre-incubated for 1 h at 22 °C with compounds at different concentrations in the assay buffer (20 mM HEPES (pH 7), 0.5 mM EDTA, 1 mM dithiothreitol, 5% glycerol). The substrate was then added at a final concentration of 10 μM to the reaction mixture and the reaction was incubated for 4 h at 22 °C. The readings for the different concentrations of the inhibitor compounds incubated with the substrate without Mpro were measured as a blank. The fluorescence signals (excitation/emission, 360 nm/460 nm) of released EDANS were measured using Infinite 200 PRO multimode plate reader (Tecan, USA). The results were plotted as dose inhibition curves using nonlinear regression with a variable slope to determine the IC50 values of inhibitor compounds using GraphPad Prism 9.0.
# [9] = tested on: Huh-7.5 cells; assay: Cytotoxicity assay (alamarBlue) on Huh-7.5 cells; settings: Huh-7.5 cells, alamarBlue reduction
# [10] = Cytotoxicity assay (alamarBlue) on Huh-7.5 cells; settings: human, CC50, Huh-7.5 cells, alamarBlue reduction
# [11] = tested on: SARS-CoV-2; assay: qRT-PCR of viral RNA molecules in infected Huh-7.5 cells; format: cell-based; settings: Huh-7.5, 24 h.p.i.
# Description: We tested the effect of selected compounds in inhibiting the spread of SARS-CoV-2 on cell monolayers was tested by immunofluorescence assay (IFA) (Fig. 5a). From the percentage of inhibition (Fig. 5b), we calculated that the PLpro inhibitors Sitagliptin and Daclastavir inhibited virus spread by 75% and 70%, respectively, compared to untreated controls (Fig. 5b). […] We next determined whether the reduction in virus spread in the inhibitor-treated cells correlates with virus replication. We extracted total RNA from infected cells treated with inhibitors and quantified the number of viral RNA molecules by quantitative real-time polymerase chain reaction (qRT-PCR) (Fig. 5c). […] However, the reduction in the number of viral RNA molecules was lower for BMS-707035 (1-log reduction), Atazanavir (0.5-log), and Lomibuvir (0.5-log).
# Fig. 5 Effect of compounds selected from ICP assay on SARS-CoV-2 replication. a Huh-7.5 cells positive for SARS-CoV-2 determined by immunofluorescence assay. Huh-7.5 cells pre-treated for 24 h with inhibitors were infected with SARS-CoV-2 at an MOI of 0.1. At 24 h.p.i., cells were fixed with paraformaldehyde and probed with anti-N (SARS CoV-2 nucleocapsid) primary antibody and FITC-conjugated goat anti-rabbit secondary antibody (green, infected cells). Nuclei were stained with Hoechst stain and confocal images were acquired. b The ratio of infected to uninfected cells for each treatment was calculated using Nikon Elements software and normalized to untreated controls (n = 5). c Quantification of SARS-CoV-2 RNA molecules from infected cells treated with inhibitors as indicated (n = 3).
# Huh-7.5 cells grown in DMEM in 6 well tissue culture plates were pre-treated with different concentrations of compounds for 24 h were infected with 0.1 MOI of SARS-CoV-2. After 1 h of infection, virus-containing media were replaced with fresh media-containing compounds, and the plates were incubated at 37 °C. Untreated cells were included in the experiment as controls. After 24 h, total RNA was extracted from the cells using a Zymopure Quick-RNA extraction kit. The number of viral RNA molecules in the extracted total RNA samples was determined by quantitative RT-PCR on a QuantStudio-3 machine (Applied BioSystems) using primers –Forward […] and Reverse […]. The Ct values obtained were used to calculate the number of RNA molecules using a standard curve of Ct versus RNA molecules.
# [12] = target: SARS-CoV-2 PLpro (Severe acute respiratory syndrome coronavirus 2, UniProt P0DTC1); assay: In vitro PLpro protease inhibition assay (Z-RLRGG-AMC); format: biochemical
# [13] = in vitro; settings: human, CC50
# [14] = tested on: Mpro; settings: read-out: IC50, reported value; cited from earlier work
# [15] = Severe acute respiratory syndrome coronavirus 2, Huh7.5, Huh-7.5 cells, MOI 0.1, 24 h.p.i., plaque assay
structure (smiles),measurement,setting,value
COc1cc(O)c(CC=C(C)C)c2c1C(=O)CC(c1ccc(O)cc1)O2 (stereo not drawn) [Isoxanthohumol],remaining activity at 1 µM,[1],90%
same,remaining activity at 10 µM,[1],60%
O[C@H]1[C@H]2c3cc4c(cc3CN3CCC(=C[C@@H]1O)[C@H]23)OCO4 [Lycorine HCl],% normalised alamar Blue reduction at 10μM,[2]; listed as Lycorine hydrochloride,76% and 65% and 69.32%
same,inhibition of virus spread compared to untreated controls,[3],88%
same,remaining activity at 1 µM,[1],43%
same,remaining activity at 10 µM,[1],25%
same,EC50,[4],16 nM
same,EC50,[5],300 nM
same,Selectivity index SI = CC50/EC50,[6]; Huh-7.5 cells,1878
same,EC50,"[6]; Severe acute respiratory syndrome coronavirus 2, Huh7.5, 24 h",10 nM
same,effect of pre-treatment on virus production / entry,[7],only minimal effect on virus production
same,inhibition of Mpro protease activity,[8],not found to be effectively inhibiting the Mpro protease activity
same,CC50,[9],19000 nM
same,CC50 at 24 h,[10],18800 nM
COC(=O)N[C@H](C(=O)N1CCC[C@H]1c1nc(-c2ccc(-c3ccc(-c4c[nH]c([C@@H]5CCCN5C(=O)[C@@H](NC(=O)OC)C(C)C)n4)cc3)cc2)c[nH]1)C(C)C [Daclastavir HCl],% normalised alamar Blue reduction at 10μM,[2]; listed as Daclatasvir dihydrochloride,89% and 80% and 96%
same,reduction in the number of viral RNA molecules compared to untreated cells,[11],2 log
same,inhibition of virus spread compared to untreated controls,[3],70%
same,IC50,[12],1840 ± 256 nM
same,EC50,[6]; [15],1590 nM
same,CC50 at 24 h,[10],32100 nM
CC(C)(C)NC(=O)N[C@H](C(=O)N1C[C@H]2[C@@H]([C@H]1C(=O)NC(CC1CCC1)C(=O)C(N)=O)C2(C)C)C(C)(C)C (stereo partly drawn) [Bocoprevir],remaining activity at 1 µM,[1],71%
same,remaining activity at 10 µM,[1],69%
CC(C)(C)C#Cc1cc(N(C(=O)[C@H]2CC[C@H](C)CC2)[C@H]2CC[C@H](O)CC2)c(C(=O)O)s1 [Lomibuvir],inhibition of virus spread compared to untreated controls,[3],below 50%
same,remaining activity at 1 µM,[1],90%
same,remaining activity at 10 µM,[1],44%
same,CC50 at 24 h,[13],48000 nM
same,EC50,[6]; [15],70 nM
same,inhibition of Mpro protease activity,[8],not found to be effectively inhibiting the Mpro protease activity
Cn1c(N2CCCCS2(=O)=O)nc(C(=O)NCc2ccc(F)cc2)c(O)c1=O [BMS-707035],inhibition of virus spread compared to untreated controls,[3],81%
same,remaining activity at 1 µM,[1],79%
same,remaining activity at 10 µM,[1],60%
same,CC50 at 24 h,[13],42200 nM
same,EC50,"[6]; Severe acute respiratory syndrome coronavirus 2, Huh7.5, Huh-7.5 cells",270 nM
same,inhibition of Mpro protease activity,[8],not found to be effectively inhibiting the Mpro protease activity
CC(C)C[C@H](NC(=O)OCc1ccccc1)C(=O)N[C@@H](CC1CCNC1=O)C(O)S(=O)(=O)O (stereo partly drawn) [GC376],IC50,[14],190 nM
same,IC50,[8],130 ± 70 nM
